This passage reports IC50 results from BindingDB's records for doi:10.1074/jbc.M113.476473 (Uppsala University, 2013).

Each structure is given as a SMILES string.

The target of experiment [1] is T1, Pantothenate kinase (Mycobacterium tuberculosis (strain ATCC 25618 / H37Rv), UniProt P9WPA7).
T1 sequence (P9WPA7 whole entry): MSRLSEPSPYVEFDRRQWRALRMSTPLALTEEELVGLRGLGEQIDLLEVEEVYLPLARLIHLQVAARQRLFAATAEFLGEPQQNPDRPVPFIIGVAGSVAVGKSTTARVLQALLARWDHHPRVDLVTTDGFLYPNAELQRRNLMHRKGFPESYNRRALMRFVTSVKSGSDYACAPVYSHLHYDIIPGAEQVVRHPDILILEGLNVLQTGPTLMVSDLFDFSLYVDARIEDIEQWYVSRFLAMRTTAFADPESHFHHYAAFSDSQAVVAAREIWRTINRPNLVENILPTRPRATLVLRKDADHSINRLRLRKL
As to the kind of experiment: Biochemical Assay (ATP at Km). The protocol: Briefly, MtPanK activity was measured in a pyruvate kinaselactate dehydrogenase-coupled assay where the reaction rate was determined by spectrophotometric measurement of NADH consumption. IC50 measurements were performed with a suitable concentration range of inhibitory compound, while keeping the concentration of pantothenate and ATP at 122 and 395 µM, respectively, which is their respective Km.

In experiment [2] the target is T1, Pantothenate kinase. As to the kind of experiment: Biochemical Assay (ATP at 50x Km). The method, then: Briefly, MtPanK activity was measured in a pyruvate kinaselactate dehydrogenase-coupled assay where the reaction rate was determined by spectrophotometric measurement of NADH consumption. A second set of IC50 measurements were performed with the ATP concentration at 50× Km, to determine the effect of cofactor competition.

As usually defined, the IC50 is the concentration at which inhibition is half-maximal. A higher IC50 goes with weaker potency in that assay. In the case of `N#Cc1ccc(-c2ccc(COC(=O)O)cc2CN2CCN(c3ccccn3)CC2)cc1` [Biaryl 2a], the IC50 was 0.12 µM in experiment [1] and 0.13 µM in experiment [2].
In experiment [1], `N#Cc1ccc(-c2ccc(OCC(N)=O)cc2CN2CCN(c3ccccn3)CC2)cc1` [Biaryl 2b] had an IC50 of 0.55 µM.
With `CC(NC(=O)c1ccccc1C(F)(F)F)c1nnc(SCCOc2ccc(F)cc2)n1C` (stereo not given) [Triazole 1a], the values for the IC50 in experiment [1] and in experiment [2] were 0.09 µM and 5.5 µM, respectively.
The like results for `CC(NC(=O)c1ccccc1Cl)c1nnc(SCCOc2ccc(F)cc2)n1C` (stereo not given) [Triazole 1b] were, in that order, 1.13 µM and more than 12.5 µM.
With `CC(NC(=O)c1ccccc1C(F)(F)F)c1nnc(SCc2ccc(F)cc2)n1C` (stereo not given) [Triazole 1c], the results for the IC50 in experiment [1] and in experiment [2] were 0.15 µM and 10.4 µM, respectively.
The corresponding values for `Cc1ccccc1OCCSc1nnc(C(C)NC(=O)c2ccccc2C(F)(F)F)n1C` (stereo not given) [Triazole 1d] are 0.14 µM and 2.82 µM.
For the molecule `CC(NC(=O)c1ccccc1C(F)(F)F)c1nnc(SCCOc2ccc(F)cc2)n1Cc1ccc(F)cc1` (stereo not given) [Triazole 1e], the values for the IC50 in experiment [1] and in experiment [2] were 0.05 µM and 0.69 µM, respectively.
On to `CC(NC(=O)c1c(F)cccc1F)c1nnc(SCCOc2ccc(F)cc2)n1C` (stereo not given) [Triazole 1f], for which the values for the IC50 in experiment [1] and in experiment [2] were 1.09 µM and 14 µM, respectively.
